Reference: patent US8329918B2, “Selective alpha 2B/2C agonists” (priority 2009, dated 2012)
pEC50: −log10 of the molar value. Read-outs that look alike come from different tables or passages of the source.

Columns and labels:
[1] = tested on: patient with moderate post-herpetic neuralgia pain; assay: Treating post-herpetic neuralgia pain in a patient; type: in vivo; settings: tablet twice daily as needed
Source text: A tablet including N-(2-methoxybenzyl)-4,5-dihydrooxazol-2-amine is delivered taken by the patient twice daily as needed for the pain.
II. […] A tablet including N-(2-methoxybenzyl)-4,5-dyhydrothizaol-2-amine is delivered taken by the patient twice daily as needed for the pain.
III. […] A tablet including N-(3-chloro-2-fluorobenzyl)-4,5-dihydrooxazol-2-amine is delivered taken by the patient twice daily as needed for the pain.

[2] = tested on: diabetic patient with moderate neuropathy in the right leg; assay: Treating diabetic peripheral neuropathy in a patient; type: in vivo; settings: topical composition on the right leg twice daily; two months later
Protocol: A topical composition including N-(2-methoxybenzyl)-4,5-dihydrooxazol-2-amine is administered on the right leg of the patient twice daily.
III. […] A topical composition including N-(2-methoxybenzyl)-4,5-dyhydrothizaol-2-amine is administered on the right leg of the patient twice daily.
III. […] A topical composition including N-(3-chloro-2-fluorobenzyl)-4,5-dihydrooxazol-2-amine is administered on the right leg of the patient twice daily.

[3] = tested on: patient with moderate intraocular pressure in the right eye; assay: Treating elevated intraocular pressure in a patient; type: in vivo; settings: ophthalmic composition to the right eye twice daily; two months later
Source text: An ophthalmic composition including N-(2-methoxybenzyl)-4,5-dihydrooxazol-2-amine is delivered to the right eye of the patient twice daily.
II. […] An ophthalmic composition including N-(2-methoxybenzyl)-4,5-dyhydrothizaol-2-amine is delivered to the right eye of the patient twice daily.
III. […] An ophthalmic composition including N-(3-chloro-2-fluorobenzyl)-4,5-dihydrooxazol-2-amine is delivered to the right eye of the patient twice daily.

[4] = biological target: T1, alpha2C receptor (Homo sapiens, UniProt P18825); assay: RSAT assay, alpha 2C; type: cell-based; settings: for (rel. efficacy) Alpha 2C / EC50: RSAT; for (rel. efficacy) Alpha 2C: ratio of maximal effect to standard full agonist brimonidine (UK14304); for EC50: NIH-3T3 cells, NA = not active, read-out: EC50 (nM) Alpha 2C
T1 construct: expressed in transfected cells; host or cells: NIH-3T3
T1 sequence (P18825 1-462): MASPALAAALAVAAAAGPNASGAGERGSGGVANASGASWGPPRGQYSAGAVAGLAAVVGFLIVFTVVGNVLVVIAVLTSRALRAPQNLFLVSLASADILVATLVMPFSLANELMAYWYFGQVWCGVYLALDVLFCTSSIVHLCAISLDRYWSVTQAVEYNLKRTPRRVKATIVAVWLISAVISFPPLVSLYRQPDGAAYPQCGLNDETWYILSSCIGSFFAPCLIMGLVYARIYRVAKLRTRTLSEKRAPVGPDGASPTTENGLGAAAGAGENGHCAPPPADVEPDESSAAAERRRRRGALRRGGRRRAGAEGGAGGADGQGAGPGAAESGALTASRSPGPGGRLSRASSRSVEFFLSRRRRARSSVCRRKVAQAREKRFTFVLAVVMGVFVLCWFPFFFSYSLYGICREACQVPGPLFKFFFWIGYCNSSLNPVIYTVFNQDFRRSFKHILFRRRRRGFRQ
Protocol: (§1) Selected presently described compounds were synthesized and tested for alpha adrenergic activity using the Receptor Selection and Amplification Technology (RSAT) assay. Cells expressing each of the alpha-2-adrenergic receptors alone were incubated with various compounds and a receptor-mediated growth response was measured. The compound's activity is expressed as its relative efficacy compared to a standard full agonist.
(§2) The RSAT assay measures a receptor-mediated loss of contact inhibition that results in selective proliferation of receptor-containing cells in a mixed population of confluent cells. The increase in cell number is assessed with an appropriate transfected marker gene such as β-galactosidase, the activity of which can be easily measured in a 96-well format. Receptors that activate the G protein, Gq, elicit this response. Alpha2 receptors, which normally couple to Gi, activate the RSAT response when coexpressed with a hybrid Gq protein that has a Gi receptor recognition domain, called Gq/i5.
(§3) NIH-3T3 cells are plated at a density of 2×10^6 cells in 15 cm dishes and maintained in Dulbecco's modified Eagle's medium supplemented with 10% calf serum. One day later, cells are cotransfected by calcium phosphate precipitation with mammalian expression plasmids encoding p-SV-β-galactosidase (5-10 μg), receptor (1-2 μg) and G protein (1-2 μg). 40 μg salmon sperm DNA may also be included in the transfection mixture. Fresh media is added on the following day and 1-2 days later, cells are harvested and frozen in 50 assay aliquots. Cells are thawed and […] added to […] aliquots of various concentrations of drugs in triplicate in 96-well dishes. Incubations continue 72-96 hr at 37° C. After washing with phosphatebuffered saline, β-galactosidase enzyme activity is determined by adding 200 μl of the chromogenic substrate (consisting of 3.5 mM o-nitrophenyl-β-D-galactopyranoside and 0.5% nonidet P-40 in phosphate buffered saline), incubating overnight at 30° C. and measuring optical density at 420 nm. The absorbance is a measure of enzyme activity, which depends on cell number and reflects a receptor-mediated cell proliferation. The EC50 and maximal effect of each drug at each alpha2 receptor is determined. The efficacy or intrinsic activity is calculated as a ratio of the maximal effect of the drug to the maximal effect of a standard full agonist for each receptor subtype. Brimonidine, also called UK14304, is used as the standard agonist for the alpha2A, alpha2B, and alpha2C receptors.
(§4) The compounds activity is expressed as its relative efficacy compared to a standard full agonist.

[5] = biological target: T2, alpha2B receptor (Homo sapiens, UniProt P18089); assay: RSAT assay, alpha 2B; type: cell-based; settings: for (rel. efficacy) Alpha 2B: ratio of maximal effect to standard full agonist brimonidine (UK14304)
T2 construct: expressed in transfected cells; host or cells: NIH-3T3
T2 sequence (P18089 1-450): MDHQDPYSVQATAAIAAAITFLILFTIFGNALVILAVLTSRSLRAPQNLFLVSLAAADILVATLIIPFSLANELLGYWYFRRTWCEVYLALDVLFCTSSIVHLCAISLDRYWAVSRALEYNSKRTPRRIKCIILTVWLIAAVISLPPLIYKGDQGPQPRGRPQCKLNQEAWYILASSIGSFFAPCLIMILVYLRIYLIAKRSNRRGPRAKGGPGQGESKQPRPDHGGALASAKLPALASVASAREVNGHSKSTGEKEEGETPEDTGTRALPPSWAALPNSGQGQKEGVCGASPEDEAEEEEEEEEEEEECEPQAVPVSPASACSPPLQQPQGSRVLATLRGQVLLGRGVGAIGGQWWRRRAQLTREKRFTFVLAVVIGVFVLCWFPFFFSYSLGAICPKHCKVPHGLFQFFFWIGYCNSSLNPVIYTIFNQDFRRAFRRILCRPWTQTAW
Protocol: as §1, §2, §3, §4

[6] = biological target: T3, alpha2A receptor (Homo sapiens, UniProt P08913); assay: RSAT assay, alpha 2A; type: cell-based; settings: for (rel. efficacy) Alpha 2A / EC50: RSAT; for (rel. efficacy) Alpha 2A: ratio of maximal effect to standard full agonist brimonidine (UK14304); for EC50: NIH-3T3 cells, NA = not active, read-out: EC50 (nM) Alpha 2A
T3 sequence (P08913 1-465): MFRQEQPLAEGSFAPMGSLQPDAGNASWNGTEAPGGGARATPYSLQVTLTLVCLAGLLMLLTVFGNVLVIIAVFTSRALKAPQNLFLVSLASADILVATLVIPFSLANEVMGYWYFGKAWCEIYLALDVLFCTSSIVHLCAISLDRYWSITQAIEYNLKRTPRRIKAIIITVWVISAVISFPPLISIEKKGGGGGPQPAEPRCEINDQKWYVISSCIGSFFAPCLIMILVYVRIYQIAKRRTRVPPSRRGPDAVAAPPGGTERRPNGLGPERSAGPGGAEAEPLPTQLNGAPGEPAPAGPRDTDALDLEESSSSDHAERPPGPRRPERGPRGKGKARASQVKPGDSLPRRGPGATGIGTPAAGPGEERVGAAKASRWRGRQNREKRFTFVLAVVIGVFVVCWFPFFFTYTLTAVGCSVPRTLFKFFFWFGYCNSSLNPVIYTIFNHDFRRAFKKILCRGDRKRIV
Protocol: as §1, §2, §3, §4

Structure (SMILES) | patient-reported pain [1] | neuropathy of the patient [2] | intraocular pressure of the patient [3] | pEC50 [4] | (rel. efficacy) Alpha 2C [4] | pEC50 [5] | (rel. efficacy) Alpha 2B ([5]; RSAT) | pEC50 [6] | (rel. efficacy) Alpha 2A [6] | EC50 [4] [nM] | EC50 [6] [nM] | EC50 ([5]; RSAT, NIH-3T3 cells, NA = not active, read-out: EC50 (nM) Alpha 2B) [nM]
COc1ccccc1CNC1=NCCO1 [N-(2-methoxybenzyl)-4,5-dihydrooxazol-2-amine] | reduction of pain | reduction neuropathy | normal intraocular pressure | – | – | – | – | – | – | – | – | –
Fc1c(Br)cccc1CNC1=NCCS1 | – | – | – | 6.74 | 0.64 | 7.47 | 0.98 | 5.86 | 0.44 | – | – | –
COc1ccc(Cl)cc1CNC1=NCCS1 | – | – | – | – | 0.55 | 7.11 | 0.85 | – | 0.38 | 465 | 2250 | –
Clc1c(Br)cccc1CNC1=NCCS1 | – | – | – | – | 0.98 | 7.74 | 1.01 | < 5.52 | 0.4 | 198 | – | –
Brc1ccccc1CNC1=NCCS1 | – | – | – | 6.72 | 0.77 | 7.54 | 0.84 | 5.56 | 0.37 | – | – | –
COc1c(Br)cccc1CNC1=NCCS1 | – | – | – | – | 0.81 | 7.51 | 1.1 | – | 0.55 | 109 | 621 | –
Cc1cccc(CNC2=NCCS2)c1Cl | – | – | – | 7.49 | 1.03 | 7.96 | 1.27 | – | 0.4 | – | 281 | –
Fc1c(I)cccc1CNC1=NCCS1 | – | – | – | 7.06 | 1.05 | 8.22 | 1.0 | – | 1.07 | – | 589 | –
COc1ccccc1CNC1=NCCS1 [N-(2-methoxybenzyl)-4,5-dihydrothiazol-2-amine] | reduction of pain | reduction neuropathy | normal intraocular pressure | – | – | – | – | – | – | – | – | –
Fc1c(Cl)cccc1CNC1=NCCO1 [N-(3-chloro-2-fluorobenzyl)-4,5-dihydrooxazol-2-amine] | reduction of pain | reduction neuropathy | normal intraocular pressure | – | – | – | – | – | – | – | – | –
COc1c(Cl)cccc1CNC1=NCCS1 | – | – | – | 7.00 | 0.73 | 7.66 | 1.08 | 6.15 | 0.38 | – | – | –
COc1c(C)cccc1CNC1=NCCS1 | – | – | – | 6.73 | 0.97 | 7.57 | 0.98 | 6.32 | 0.57 | – | – | –
Clc1ccc(Br)c(CNC2=NCCS2)c1 | – | – | – | – | 0.69 | – | 1.04 | – | 0.45 | 855 | 2270 | 250
